In patent publication US8796325B2, “Metronidazole esters for treating rosacea” (Galderma Research & Development, priority 2010, dated 2014):
Entries after “also recorded” stand apart in the source; their conditions may differ.

Tests used:
[1] = Stability evaluated on keratinocyte cultures; type: in vitro ADME; details: human, human neonatal keratinocyte cultures; keratinocyte cultures; 2 μM in medium CNT-057 with 0.1% pluronic acid, 0.1% DMSO; degradation kinetics over 24 hours; LC/MS/MS; read-out: half-life time (t1/2) (converted)
Protocol: (§1) The stability on keratinocyte cultures is evaluated using human neonatal keratinocytes (Cell'N Tech) cultured in a 75 cm^2 flask and detached at 90-100% of confluence with vegetable trypsin (trypLE GIBCO). The compound of formula (I) was tested at 2 μM in the medium CNT-057 (Cell'N Tech) supplemented with 0.1% pluronic acid in 24-well plates. The final DMSO concentration is 0.1%. Degradation kinetics are performed with a Tecan EVO robot over 24 hours. The samples taken are then assayed by LC/MS/MS (Micromass) in comparison with a calibration range of the test product, prepared under the same conditions as the samples (⅓ culture medium and ⅔ methanol). The chromatographic conditions are optimized for each product. An assay of the appearance of metronidazole is also performed using these same samples.

[2] = tested on: human neonatal keratinocytes; assay: Stability evaluated on keratinocyte cultures; type: in vitro ADME; details: over 24 hours
Protocol: as §1

| Compound | melting point [°C] | half-life at 2 μM [1] [h] | stability / hydrolysis of the ester on keratinocyte cultures (in words) [2] |
| --- | --- | --- | --- |
| Cc1ncc([N+](=O)[O-])n1CCOC(=O)Cc1ccccc1Nc1c(Cl)cccc1Cl [compound of formula (I), 2-(2-methyl-5-nitroimidazol-1-yl)ethyl [2-(2,6-dichlorophenylamino)phenyl]acetate] | 122 to 124 | 8 | specifically cleaved in keratinocytes |
| Cc1ncc([N+](=O)[O-])n1CCOC(=O)c1cc(-c2ccc(F)cc2F)ccc1O [metronidazole ester with diflunisal] |  |  | stable in the presence of keratinocytes; also recorded: do not become hydrolysed |
| COc1ccc2c(c1)c(CC(=O)OCCn1c([N+](=O)[O-])cnc1C)c(C)n2C(=O)c1ccc(Cl)cc1 [metronidazole ester with indomethacin] |  |  | stable in the presence of keratinocytes; also recorded: do not become hydrolysed |
| Cc1ncc([N+](=O)[O-])n1CCOC(=O)C1CCn2c(C(=O)c3ccccc3)ccc21 (stereo not shown) [metronidazole ester with ketorolac] |  |  | stable in the presence of keratinocytes; also recorded: do not become hydrolysed |
| Cc1ncc([N+](=O)[O-])n1CCOC(=O)c1cccnc1Nc1cccc(C(F)(F)F)c1 [metronidazole ester with niflumic acid] |  |  | stable in the presence of keratinocytes; also recorded: do not become hydrolysed |
